{"source": "patent US7524860B2", "about": "“Antibacterial agents” (Pfizer Inc., priority 2004, dated 2009)", "tested_on": "Neisseria gonorrhoeae, GC525 (NG-2888)", "assay": "in-vitro antibacterial activity, microbroth dilution MIC susceptibility testing", "type": "cell-based", "design": "unit: ug/mL", "conditions": "microbroth dilution in gonococcal broth, 20-24 hours at 35 C, lowest concentration preventing visible growth", "description": "The in-vitro antibacterial activity of selected compounds was determined against a stain of Neisseria gonorrhoeae, GC525 (NG-2888), which is described by Rouquette-Loughlin et al, in Journal of Bacteriology, February 2003, p. 1101-1106, at p. 1103. In general, minimum inhibitory concentration (MIC) susceptibility testing followed procedures recommended by the National Committee for Clinical Laboratory Standards (NCCLS^1-2) or followed the descriptions described below:\nNeisseria gonorrhoeae strains were grown on Chocolate Agar II plates (BBL—Becton Dickinson Microbiology Systems, Cockeysville, Md.) and incubated at 35° C. in a humidified 5% CO2 incubator (Form a Scientific, Marietta Ohio). For microbroth dilution MIC testing, N. gonorrhoeae were tested in gonococcal broth (GCB):\nGram stains were also utilized. Permanent Stock Culture Collection\nBacterial stock cultures are stored as frozen suspensions at −70 C. N. gonorrhoeae cultures are suspended in inactivated Horse Serum (Colorado Serum Company, Denver, Colo.) containing 7.5% glucose prior to snap freezing in a dry ice/ethanol bath.\nPreparation of Standardized Test Inocula and Plate Inoculation\nFrozen stock cultures were used as the initial source of organisms for performing microbroth dilution MIC testing. Stock cultures were passed on their respective growth medium at least one growth cycle (18-24 hours) prior to their use. Bacterial culture suspensions were prepared directly from Chocolate Agar II plates into 10 mL cation-adjusted Mueller-Hinton Broth (CAMHB, BBL, # BB215069). Before use, cultures were adjusted to an optical density value of 1.6-2 on a Perkin-Elmer Lambda EZ150 Spectrophotometer (Wellesley, Mass.) set at a wavelength of 600 nm. Random cultures were plated for validation of actual colony counts. The adjusted cultures were diluted 400-fold (0.25 mL inoculum+100 mL GCB) into gonococcal broth producing a starting inoculum of approximately 5×10^5 cfu/mL. These cultures were inoculated into test plates (100 uL/well) using a Biomek® FX workstation (Beckman Coulter Inc., Fullerton, Calif.). The inoculated plates were placed in stacks of no more than 4 and covered with an empty plate. Plates were incubated for 20-24 hours at 35 C in a humidified CO2 incubator.\nTest Compound (“Drug”) Preparation\nDrug stock solutions (2 mg/mL in DMSO) were prepared on the day of testing. Drugs were weight corrected for assay content where necessary.\nDrug Dilution Tray Preparation\nMicrobroth dilution stock plates were prepared in two dilution series, 64-0.06 ug drug/mL and 1-0.001 ug drug/mL. For the high concentration series, 200 uL of stock solution (2 mg/mL) was added to duplicate rows of a 96-well plate. This was used as the first well in the dilution series. Serial two-fold decremental dilutions were made using a BioMek FX robot (Beckman Coulter Inc., Fullerton, Calif.) with 10 of the remaining 11 wells, each of which contained 100 uL of the appropriate solvent/diluent. Row 12 contained solvent/diluent only and served as the control. For tube one of the low concentration series, 200 uL of a 31.25 ug/mL stock was added to duplicate rows of a 96-well plate. Serial two-fold dilutions were made as described above.\nDaughter plates were spotted (3.2 uL/well) from the stock plates listed above using the BioMek FX robot and were inoculated with organism (100 uL/well) as described previously.\nAfter incubation, the degree of growth in each well was read visually with the aid of a Test Reading Mirror (Dynatech Lab 220-16, Dynex Technologies, Chantilly, Va.). 96-well test plates are read in a darkened room with a single light shining from above. The MIC is the lowest concentration of drug that prevents macroscopically visible growth under the conditions of the test. […] If MIC values in duplicate tests differ by 1 well (two-fold), the […] value is reported. If duplicate tests vary by 2 dilutions (four-fold), the middle value is reported.", "key": {"[1]": {"conditions": "Neisseria gonorrhoeae, read-out: MIC"}}, "note": "Read-outs that look alike come from different tables or passages of the source."}
{"molecule": "1-(5-Cyclopropylaminomethyl-7-pyridin-3-yl-imidazo[1,2-a]pyridin-2-yl)-3-ethyl-urea [Example 114]", "values": [{"measurement": "MIC", "value": 32.0, "unit": "µg/mL"}]}
{"molecule": "1-Ethyl-3-(5-ethylaminomethyl-7-pyridin-3-yl-imidazo[1,2-a]pyridin-2-yl)-urea [Example 115]", "values": [{"measurement": "MIC", "value": 32.0, "unit": "µg/mL"}]}
{"molecule": "1-Ethyl-3-[7-pyridin-3-yl-5-(pyrrolidine-1-carbonyl)-imidazo[1,2-a]pyridin-2-yl]-urea [Example 120]", "values": [{"measurement": "MIC", "value": ">64.0", "unit": "µg/mL"}]}
{"molecule": "1-[7-(6-Dimethylamino-pyridin-3-yl)-[1,2,4]triazolo[1,5-a]pyridin-2-yl]-3-ethyl-urea [Example 4]", "values": [{"measurement": "MIC", "value": ">64.0", "unit": "µg/mL"}]}
{"molecule": "2-(3-Ethyl-ureido)-7-(4-methoxy-phenyl)-imidazo[1,2-a]pyridine-5-carboxylic acid ethylamide [Example 119]", "values": [{"measurement": "MIC", "value": 64.0, "unit": "µg/mL"}]}
{"molecule": "7-(2-Dimethylamino-pyrimidin-5-yl)-2-(3-isopropyl-ureido)-imidazo[1,2-a]pyridine-5-carboxylic acid ethylamide [Example 117]", "values": [{"measurement": "MIC", "value": ">64.0", "unit": "µg/mL"}]}
{"molecule": "CCNC(=O)Nc1nc2cc(-c3cncnc3)ccn2n1", "note": "[Example 5, 1-Ethyl-3-(7-pyrimidin-5-yl-[1,2,4]triazolo[1,5-a]pyridin-2-yl)-urea]", "values": [{"measurement": "MIC", "setting": "[1]", "value": 64, "unit": "µg/mL"}]}
{"molecule": "CCNC(=O)Nc1nc2cc(-c3cccnc3)cc(C(=O)NCC)n2n1", "note": "[Example 8, 2-(3-Ethyl-ureido)-7-pyridin-3-yl-[1,2,4]triazolo[1,5-a]pyridine-5-carboxylic acid ethylamide]", "values": [{"measurement": "MIC", "setting": "[1]", "value": 1, "unit": "µg/mL"}]}
{"molecule": "CCCNC(=O)c1cc(-c2cccnc2)cc2nc(NC(=O)NCC)nn12", "note": "[Example 9, 2-(3-Ethyl-ureido)-7-pyridin-3-yl-[1,2,4]triazolo[1,5-a]pyridine-5-carboxylic acid propylamide]", "values": [{"measurement": "MIC", "setting": "[1]", "value": 4, "unit": "µg/mL"}]}
{"molecule": "CCNC(=O)Nc1nc2cc(-c3cccnc3)cc(C(=O)NCC3CC3)n2n1", "note": "[Example 10, 2-(3-Ethyl-ureido)-7-pyridin-3-yl-[1,2,4]triazolo[1,5-a]pyridine-5-carboxylic acid cyclopropylmethyl-amide]", "values": [{"measurement": "MIC", "setting": "[1]", "value": 8, "unit": "µg/mL"}]}
{"molecule": "CCNC(=O)Nc1nc2cc(-c3cccnc3)cc(C(=O)NCc3ccccc3)n2n1", "note": "[Example 11, 2-(3-Ethyl-ureido)-7-pyridin-3-yl-[1,2,4]triazolo[1,5-a]pyridine-5-carboxylic acid benzylamide]", "values": [{"measurement": "MIC", "setting": "[1]", "value": "> 64", "unit": "µg/mL"}]}
{"molecule": "CCNC(=O)Nc1nc2cc(-c3cccnc3)cc(C(=O)NC(C)C)n2n1", "note": "[Example 12, 2-(3-Ethyl-ureido)-7-pyridin-3-yl-[1,2,4]triazolo[1,5-a]pyridine-5-carboxylic acid isopropylamide]", "values": [{"measurement": "MIC", "setting": "[1]", "value": 2, "unit": "µg/mL"}]}
{"molecule": "CCNC(=O)Nc1nc2cc(-c3cccnc3)cc(C(=O)NC3CC3)n2n1", "note": "[Example 13, 2-(3-Ethyl-ureido)-7-pyridin-3-yl-[1,2,4]triazolo[1,5-a]pyridine-5-carboxylic acid cyclopropylamide]", "values": [{"measurement": "MIC", "setting": "[1]", "value": 4, "unit": "µg/mL"}]}
{"molecule": "CCNC(=O)Nc1nc2cc(-c3cccnc3)cc(C(=O)N(CC)CC)n2n1", "note": "[Example 14, 2-(3-Ethyl-ureido)-7-pyridin-3-yl-[1,2,4]triazolo[1,5-a]pyridine-5-carboxylic acid diethylamide]", "values": [{"measurement": "MIC", "value": 16, "unit": "µg/mL"}]}
{"molecule": "CCNC(=O)Nc1nc2cc(-c3cccnc3)cc(-c3cnco3)n2n1", "note": "[Example 22, N-Ethyl-N′-[5-(1,3-oxazol-5-yl)-7-pyridin-3-yl[1,2,4]triazolo[1,5-a]pyridin-2-yl]urea]", "values": [{"measurement": "MIC", "setting": "[1]", "value": 0.5, "unit": "µg/mL"}]}
{"molecule": "CCNC(=O)Nc1nc2cc(-c3cccnc3)cc(/C=N/O)n2n1", "note": "[Example 24, N-Ethyl-N′-{5-[(E)-(hydroxyimino)methyl]-7-pyridin-3-yl[1,2,4]triazolo[1,5-a]pyridin-2-yl}urea]", "values": [{"measurement": "MIC", "setting": "[1]", "value": "> 64", "unit": "µg/mL"}]}
{"molecule": "CCNC(=O)Nc1nc2cc(-c3cccnc3)cc(C(C)O)n2n1", "note": "(stereo not shown) [Example 25, N-Ethyl-N′-[5-(1-hydroxyethyl)-7-pyridin-3-yl[1,2,4]triazolo[1,5-a]pyridin-2-yl]urea]", "values": [{"measurement": "MIC", "setting": "[1]", "value": 1, "unit": "µg/mL"}]}
{"molecule": "CCNC(=O)Nc1nc2cc(-c3cccnc3)cc(C(C)=O)n2n1", "note": "[Example 26, N-(5-Acetyl-7-pyridin-3-yl[1,2,4]triazolo[1,5-a]pyridin-2-yl)-N′-ethylurea]", "values": [{"measurement": "MIC", "setting": "[1]", "value": 1, "unit": "µg/mL"}]}
{"molecule": "CCNC(=O)Nc1nc2cc(-c3cccnc3)cc(C#N)n2n1", "note": "[Example 27, N-(5-Cyano-7-pyridin-3-yl[1,2,4]triazolo[1,5-a]pyridin-2-yl)-N′-ethylurea]", "values": [{"measurement": "MIC", "setting": "[1]", "value": 2, "unit": "µg/mL"}]}
{"molecule": "CCNC(=O)Nc1nc2cc(-c3cccnc3)cc(-c3nnc(CC(C)=O)o3)n2n1", "note": "[Example 28, 1-Ethyl-3-{5-[5-(2-oxo-propyl)-[1,3,4]oxadiazol-2-yl]-7-pyridin-3-yl-[1,2,4]triazolo[1,5-a]pyridin-2-yl}-urea]", "values": [{"measurement": "MIC", "setting": "[1]", "value": "> 64", "unit": "µg/mL"}]}
{"molecule": "CCNC(=O)Nc1nc2cc(-c3cccnc3)cc(-c3nnc(C(C)C)o3)n2n1", "note": "[Example 29]", "values": [{"measurement": "MIC", "value": ">64.0", "unit": "µg/mL"}]}
{"molecule": "CCNC(=O)Nc1nc2cc(-c3cnc(N(C)C)nc3)cc(-c3nnc(CC(C)C)s3)n2n1", "note": "[Example 30]", "values": [{"measurement": "MIC", "value": ">64.0", "unit": "µg/mL"}]}
{"molecule": "CCNC(=O)Nc1nc2cc(-c3cccnc3OC)cc(C(=O)NCC)n2n1", "note": "[Example 31, 2-(3-Ethyl-ureido)-7-(2-methoxy-pyridi-3-yl)-[1,2,4]triazolo[1,5-a]pyridine-5-carboxylic acid ethyl amide]", "values": [{"measurement": "MIC", "value": 8.00, "unit": "µg/mL"}]}
{"molecule": "CCNC(=O)Nc1nc2cc(-c3cnccc3OC)cc(C(=O)NCC)n2n1", "note": "[Example 32, 2-(3-Ethyl-ureido)-7-(4-methoxy-pyridin-3-yl)-[1,2,4]triazolo[1,5-a]pyridine-5-carboxylic acid ethyl amide]", "values": [{"measurement": "MIC", "setting": "[1]", "value": 1, "unit": "µg/mL"}]}
{"molecule": "CCNC(=O)Nc1nc2cc(C3=CCOCC3)cc(C(=O)NCC)n2n1", "note": "[Example 33, 7-(3,6-Dihydro-2H-pyran-4-yl)-2-(3-ethyl-ureido)-[1,2,4]triazolo[1,5-a]pyridine-5-carboxylic acid ethyl amide]", "values": [{"measurement": "MIC", "setting": "[1]", "value": "> 64", "unit": "µg/mL"}]}
{"molecule": "CCNC(=O)Nc1nc2cc(-c3ccc(F)nc3)cc(C(=O)NCC)n2n1", "note": "[Example 34, 2-(3-Ethyl-ureido)-7-(6-fluoro-pyridin-3-yl)-[1,2,4]triazolo[1,5-a]pyridine-5-carboxylic acid ethylamide]", "values": [{"measurement": "MIC", "setting": "[1]", "value": 1, "unit": "µg/mL"}]}
{"molecule": "CCNC(=O)Nc1nc2cc(-c3ccc(C)nc3C)cc(C(=O)NCC)n2n1", "note": "[Example 35, 7-(2,6-Dimethyl-pyridin-3-yl)-2-(3-ethyl-ureido)-[1,2,4]triazolo[1,5-a]pyridine-5-carboxylic acid ethyl amide]", "values": [{"measurement": "MIC", "setting": "[1]", "value": 8, "unit": "µg/mL"}]}
{"molecule": "CCNC(=O)Nc1nc2cc(-c3cccnc3)cc(C(=O)N(C)CCN(CC)CC)n2n1", "note": "[Example 36, 2-(3-Ethyl-ureido)-7-pyridin-3-yl-[1,2,4]triazolo[1,5-a]pyridine-5-carboxylic acid(2-diethylamino-ethyl)-methyl-amide]", "values": [{"measurement": "MIC", "setting": "[1]", "value": "> 64", "unit": "µg/mL"}]}
{"molecule": "CCNC(=O)Nc1nc2cc(-c3cccnc3)cc(C(=O)N[C@H]3CC[C@H](O)CC3)n2n1", "note": "[Example 39, trans-2-(3-Ethyl-ureido)-7-pyridin-3-yl-[1,2,4]triazolo[1,5-a]pyridine-5-carboxylic acid (4-hydroxy-cyclohexyl)-amide]", "values": [{"measurement": "MIC", "setting": "[1]", "value": 32, "unit": "µg/mL"}]}
{"molecule": "CCNC(=O)Nc1nc2cc(-c3cccnc3)cc(C(=O)NCC(C)C)n2n1", "note": "[Example 40, 2-(3-Ethyl-ureido)-7-pyridin-3-yl-[1,2,4]triazolo[1,5-a]pyridine-5-carboxylic acid isobutyl-amide]", "values": [{"measurement": "MIC", "setting": "[1]", "value": 2, "unit": "µg/mL"}]}
{"molecule": "CCNC(=O)Nc1nc2cc(-c3cccnc3)cc(C(=O)NC3CCN(C(C)C)CC3)n2n1", "note": "[Example 41, 2-(3-Ethyl-ureido)-7-pyridin-3-yl-[1,2,4]triazolo[1,5-a]pyridine-5-carboxylic acid (1-isopropyl-piperidin-4-yl)-amide]", "values": [{"measurement": "MIC", "setting": "[1]", "value": 16, "unit": "µg/mL"}]}
